Laboratory results from patent US20250230193A1, “CYCLIC COMPOUND HAVING SELECTIVE KRAS INHIBITORY EFFECT ON HRAS AND NRAS” (CHUGAI SEIYAKU KABUSHIKI KAISHA, priority 2022, published 2025).

Legend:
[1] = target: GDP-bound NRAS wild-type protein (Homo sapiens, UniProt P01111); test: Binding to NRAS by surface plasmon resonance (SPR), Single Cycle Kinetics; conditions: SPR
[2] = target: GDP-bound HRAS wild-type protein (Homo sapiens, UniProt P01112); test: Binding to HRAS by surface plasmon resonance (SPR), Single Cycle Kinetics; conditions: SPR
Chain of GDP-bound HRAS wild-type protein (P01112 whole entry): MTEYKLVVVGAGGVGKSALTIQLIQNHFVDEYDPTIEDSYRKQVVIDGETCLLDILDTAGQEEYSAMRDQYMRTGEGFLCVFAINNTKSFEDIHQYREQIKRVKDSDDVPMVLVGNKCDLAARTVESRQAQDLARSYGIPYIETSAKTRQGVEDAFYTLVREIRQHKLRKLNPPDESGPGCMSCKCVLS

[3] = GDP-bound NRAS wild-type vs GDP-bound KRAS wild-type
[4] = GDP-bound HRAS wild-type vs GDP-bound KRAS wild-type

Chain of GDP-bound NRAS wild-type protein (P01111 whole entry): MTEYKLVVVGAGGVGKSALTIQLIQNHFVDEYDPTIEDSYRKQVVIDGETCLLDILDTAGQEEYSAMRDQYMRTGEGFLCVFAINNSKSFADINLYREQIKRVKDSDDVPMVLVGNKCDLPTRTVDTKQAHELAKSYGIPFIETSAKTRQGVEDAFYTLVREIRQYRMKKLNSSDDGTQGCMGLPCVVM

SMILES: CC[C@H](C)[C@@H]1NC(=O)[C@H](CC)N(C)C(=O)C[C@@H](C(=O)N(C)C)N(C)C(=O)[C@H](C2CCCC2)N(C)C(=O)C2(CCC2)N(C)C(=O)[C@@H]2CCCN2C(=O)[C@H](CCc2cc(F)c(C(F)(F)F)c(F)c2)NC(=O)CN(C)C(=O)[C@H](Cc2ccc(C)cc2)N2CC/C=C\C[C@@H](C2=O)N(C)C(=O)CN(C)C1=O [PP1782]
- NRAS/KRAS (ratio of KD value for NRAS to KD value for KRAS) [1, 3]: A (a compound having 10 or more and less than 20 is denoted as A)
- HRAS/KRAS (ratio of KD value for HRAS to KD value for KRAS) [2, 4]: B (a compound having 3 or more and less than 10 is denoted as B)

SMILES: CCCOC[C@H]1C(=O)N[C@@H]([C@@H](C)CC)C(=O)N(C2CC2)CC(=O)N(C)[C@H]2C/C=C\CCN(C2=O)[C@@H](Cc2ccc(C(F)(F)F)cc2)C(=O)N(C)CC(=O)N[C@@H](CCc2ccc(C(F)(F)F)c(OC)c2)C(=O)N2C[C@H](OCC)C[C@H]2C(=O)N(C)C2(CCC2)C(=O)N(C)[C@@H](C2CCCC2)C(=O)N(C)[C@H](C(=O)N(C)C)CC(=O)N1C [PP2318]
- NRAS/KRAS (ratio of KD value with respect to NRAS to KD value with respect to KRAS) [1, 3]: A (a compound having 10 or more and less than 20 is denoted as A)
- HRAS/KRAS (ratio of KD value with respect to HRAS to KD value with respect to KRAS) [2, 4]: A (a compound having 10 or more and less than 20 is denoted as A)

SMILES: CCO[C@@H]1C[C@H]2C(=O)NC3(CC(C)(C)C3)C(=O)N(C)[C@@H](C3CCCC3)C(=O)N(C)[C@H](CC)CC(=O)N(C)[C@@H](CC)C(=O)N[C@@H]([C@@H](C)CC)C(=O)N(C)CC(=O)N(C)[C@H]3C/C=C\CCN(C3=O)[C@@H](Cc3ccc(C(F)(F)F)cc3)C(=O)N(C)CC(=O)N[C@@H](CCc3cc(F)c(C(F)(F)F)c(F)c3)C(=O)N2C1 [PP1623]
- NRAS/KRAS (ratio of KD value for NRAS to KD value for KRAS) [1, 3]: A (a compound having 10 or more and less than 20 is denoted as A)
- HRAS/KRAS (ratio of KD value for HRAS to KD value for KRAS) [2, 4]: A (a compound having 10 or more and less than 20 is denoted as A)

SMILES: CCO[C@@H]1C[C@H]2C(=O)NC3(CC(C)(C)C3)C(=O)N(C)[C@@H](C3CCCC3)C(=O)N(C)[C@H](C(=O)N(C)CC)CC(=O)N(C)[C@H]3CCCC/C=C/c4ccc(cc4)C[C@@H](C(=O)N(C)CC(=O)N[C@@H](CCc4ccc(C(F)(F)F)c(OC)c4)C(=O)N2C1)N1CC/C=C\C[C@@H](C1=O)N(C)C(=O)CN(C)C(=O)[C@H]([C@@H](C)CC)NC3=O [PP1830, (1S,7S,11R,13S,19S,22S,26S,29S,35S,37Z,47E)-19-cyclopentyl-11-ethoxy-N-ethyl-7-[2-[3-methoxy-4-(trifluoromethyl)phenyl]ethyl]-N,3,3′,3′,18,21,25,31,34-nonamethyl-29-[(1S)-1-methylpropyl]-2,5,8,14,17,20,24,27,30,33,55-undecaoxo-spiro[3,6,9,15,18,21,25,28,31,34,41-undecazapentacyclo[24.15.11.2^43,46.1^35,41.0^9,13]pentapentaconta-37,43(54),44,46(53),47-pentaene-16,1′-cyclobutane]-22-carboxamide]
- NRAS/KRAS (ratio of KD value for NRAS to KD value for KRAS) [1, 3]: A (a compound having 10 or more and less than 20 is denoted as A)
- HRAS/KRAS (ratio of KD value for HRAS to KD value for KRAS) [2, 4]: B (a compound having 3 or more and less than 10 is denoted as B)

SMILES: CC[C@H](C)[C@@H]1NC(=O)[C@H](C)N(C)C(=O)C[C@@H](C(=O)N(C)C)N(C)C(=O)[C@H](C2CCCC2)N(C)C(=O)C2(CCC2)NC(=O)[C@@H]2CCCN2C(=O)[C@H](CCc2cc(F)c(C(F)(F)F)c(F)c2)NC(=O)CN(C)C(=O)[C@H](Cc2ccc(C(F)(F)F)cc2)N2CCCC[C@@H](C2=O)N(C)C(=O)CN(C)C1=O [PP0581]
- NRAS/KRAS (ratio of KD value with respect to GDP-bound NRAS wild-type protein to KD value with respect to KRAS) ([1]; KD ratio NRAS/KRAS): C (A compound having a KD ratio of 0.1 or more and less than 3 is denoted as C)
- HRAS/KRAS (ratio of KD value with respect to GDP-bound HRAS wild-type protein to KD value with respect to KRAS) ([2]; KD ratio HRAS/KRAS): B (a compound having 3 or more and less than 10 is denoted as B)
